We go through 11 molecules from ChEMBL document CHEMBL6177985, “Discovery of Novel Cyclic Peptides as SMAD2-SMAD4 Interaction Inhibitors for the Treatment of Hepatic Fibrosis” (J Med Chem, 2025).

Series [1] concerns LX-2. Kind of series: Inhibition of TGF-beta induced SMAD1/5/8 phosphorylation level in human LX-2 cells at 100 uM by Western blot analysis. The format is functional, cell-based.
Series [2] has as its system Mus musculus. Kind of series: Anti-fibrotic activity against CCl4-induced liver fibrosis male C57BL/6J mouse model assessed as effect on SMAD3 phosphorylation in liver at 400 microg/kg, ip measured for 3 weeks by Western blot analysis. The format is functional, organism-based. The settings on record: dose 400.0 µg/kg.
The subject of series [3] is LX-2. Nature of the series: Antifibrotic activity against TGF-beta1 stimulated human LX-2 cells assessed as reduction in COL1A1 expression at 100 uM incubated for 24 hrs by Western blotting analysis. The format is functional, cell-based.
The species entered for another series is Homo sapiens. Nature of the series: Inhibition of TGF-beta induced his tagged human SMAD2/human SMAD4 interaction at 100 uM incubated for 1 hr followed by anti-His-HRP addition and measured after 1 hr by blocking assay relative to control. The conditions noted are these: time 2.0 hrs.
The test system of series [4] is Mus musculus. Kind of series: Anti-fibrotic activity against CCl4-induced liver fibrosis male C57BL/6J mouse model assessed as effect on SMAD1/5/8 phosphorylation in liver at 400 microg/kg, ip measured for 3 weeks by Western blot analysis. The settings on record: dose 400.0 µg/kg. The format is functional, organism-based.
In series [5] the test system is LX-2. Kind of series: Antifibrotic activity against TGF-beta1 stimulated human LX-2 cells assessed as reduction in alpha-SMA expression at 100 uM incubated for 24 hrs by Western blotting analysis. The format is functional, cell-based.
The subject of series [6] is LX-2. Nature of the series: Inhibition of TGF-beta induced SMAD3 phosphorylation level in human LX-2 cells at 100 uM by Western blot analysis. The format is functional, cell-based.
Series [7] has as its system LX-2. Kind of series: Downregulation of TGF-beta induced alpha-SMA level in human LX-2 cells at 100 uM by Immunoblot analysis. The format is functional, cell-based.
In series [8] the test system is LX-2. Kind of series: Downregulation of TGF-beta induced P65 phosphorylation level in human LX-2 cells at 100 uM by Immunoblot analysis. The format is functional, cell-based.
Series [9] concerns LX-2. Kind of series: Downregulation of TGF-beta induced COL1A1 level in human LX-2 cells at 100 uM by Immunoblot analysis. The format is functional, cell-based.
Series [10] concerns LX-2. Nature of the series: Downregulation of TGF-beta induced SMAD2 phosphorylation level in human LX-2 cells at 100 uM by Immunoblot analysis. The format is functional, cell-based.
Series [11] in a line: Stability in rat serum measured up to 48 hrs by LC-MS/MS analysis. The format is ADME, cell-free.
In series [12] the test system is LX-2. Kind of series: Inhibition of HSC activation in TGFbeta-induced human LX-2 cells assessed as reduction in alpha-SMA by Western blot analysis. The format is functional, cell-based. The settings on record: dose 25-100 µM.
The species entered for series [13] is Mus musculus. Nature of the series: Effect on gene expression in CCl4-induced male C57BL/6J mouse assessed as change in genes associated with cellular component in liver tissue by RT-PCR analysis. The format is functional, organism-based.
For series [14], the system named is Mus musculus. Nature of the series: Anti-fibrotic activity against CCl4-induced liver fibrosis male C57BL/6J mouse model assessed as decrease in collagen deposition at 400 microg/kg, ip measured for 3 weeks. The format is functional, organism-based. The settings on record: dose 400.0 µg/kg.
Series [15] relates to Mus musculus. Nature of the series: Anti-fibrotic activity against CCl4-induced liver fibrosis male C57BL/6J mouse model assessed as alleviation of COL1A1 level at 400 microg/kg, ip measured for 3 weeks by immunohistochemical staining based analysis. The format is functional, organism-based. The conditions noted are these: dose 400.0 µg/kg.
The test system of series [16] is LX-2. Nature of the series: Inhibition of HSC activation in TGFbeta-induced human LX-2 cells assessed as reduction in COL1A1 by Western blot analysis. The format is functional, cell-based. The conditions noted are these: dose 25-100 µM.
In series [17] the test system is LX-2. Nature of the series: Inhibition of HSC activation in TGFbeta-induced human LX-2 cells assessed as reduction in alpha-SMA at 100 uM by Western blot analysis. The format is functional, cell-based.
The subject of series [18] is LX-2. Nature of the series: Inhibition of SMAD2 phosphorylation level in TGF-beta and TMSO induced human LX-2 cells at 300 uM by immunoblot analysis. The format is functional, cell-based.
Series [19] relates to Mus musculus. Kind of series: Anti-fibrotic activity against CCl4-induced liver fibrosis male C57BL/6J mouse model assessed as reduction in COL1A1 expression in liver at 400 microg/kg, ip measured for 3 weeks by Western blot analysis. The conditions noted are these: dose 400.0 µg/kg. The format is functional, organism-based.
For series [20], the system named is Mus musculus. Kind of series: Anti-fibrotic activity against CCl4-induced liver fibrosis male C57BL/6J mouse model assessed as reduction in alpha-SMA expression in liver at 400 microg/kg, ip measured for 3 weeks by Western blot analysis. The format is functional, organism-based. The conditions noted are these: dose 400.0 µg/kg.
Series [21] relates to Mus musculus. Nature of the series: Anti-fibrotic activity against CCl4-induced liver fibrosis male C57BL/6J mouse model assessed as reduction of AST level at 400 microg/kg, ip measured for 3 weeks by biochemical analysis. The format is functional, organism-based. The settings on record: dose 400.0 µg/kg.
For series [22], the species on record is Mus musculus. Nature of the series: Effect on gene expression in CCl4-induced male C57BL/6J mouse assessed as change in genes associated with biological process in liver tissue by RT-PCR analysis. The format is functional, organism-based.
The subject of series [23] is LX-2. Nature of the series: Inhibition of TGF-beta induced SMAD2 phosphorylation level in human LX-2 cells at 100 uM by Western blot analysis. The format is functional, cell-based.
In series [24] the test system is Mus musculus. Nature of the series: Anti-fibrotic activity against CCl4-induced liver fibrosis male C57BL/6J mouse model assessed as reduction of ALT level at 400 microg/kg, ip measured for 3 weeks by biochemical analysis. The format is functional, organism-based. The conditions noted are these: dose 400.0 µg/kg.
Series [25] is filed under the species Mus musculus. Kind of series: Effect on gene expression in CCl4-induced male C57BL/6J mouse assessed as change in genes associated with molecular function in liver tissue by RT-PCR analysis. The format is functional, organism-based.
For series [26], the system named is Mus musculus. Nature of the series: Anti-fibrotic activity against CCl4-induced liver fibrosis male C57BL/6J mouse model assessed as alleviation of alpha SMA level at 400 microg/kg, ip measured for 3 weeks by immunohistochemical staining based analysis. The format is functional, organism-based. The conditions noted are these: dose 400.0 µg/kg.
The subject of series [27] is Mus musculus. Nature of the series: Anti-fibrotic activity against CCl4-induced liver fibrosis male C57BL/6J mouse model assessed as reduction in P65 phosphorylation level in liver at 400 microg/kg, ip measured for 3 weeks by Western blot analysis. The format is functional, organism-based. The conditions noted are these: dose 400.0 µg/kg.
The species entered for series [28] is Mus musculus. Nature of the series: Effect on gene expression in CCl4-induced male C57BL/6J mouse assessed as upregulation of genes associated with inflammatory response in liver tissue by RT-PCR analysis. The format is functional, organism-based.
Series [29] deals with Mus musculus. Kind of series: Anti-fibrotic activity against CCl4-induced liver fibrosis male C57BL/6J mouse model assessed as reduction in SMAD2 level in liver at 400 microg/kg, ip measured for 3 weeks by Western blot analysis. The format is functional, organism-based. The settings on record: dose 400.0 µg/kg.
Series [30] is filed under the species Mus musculus. Nature of the series: Effect on gene expression in CCl4-induced male C57BL/6J mouse assessed as upregulation of genes associated with collagen deposition in liver tissue by RT-PCR analysis. The format is functional, organism-based.
Series [31] relates to LX-2. Nature of the series: Inhibition of TGF-beta induced SMAD2 phosphorylation level in human LX-2 cells by Western blot analysis. The format is functional, cell-based. The settings on record: dose 25-100 µM.
In series [32] the test system is LX-2. Nature of the series: Inhibition of HSC activation in TGFbeta-induced human LX-2 cells assessed as reduction in COL1A1 at 100 uM by Western blot analysis. The format is functional, cell-based.
Series [33] concerns Mus musculus. Nature of the series: Anti-fibrotic activity against CCl4-induced liver fibrosis male C57BL/6J mouse model assessed as decrease in inflammatory infiltration at 400 microg/kg, ip measured for 3 weeks. The format is functional, organism-based. The settings on record: dose 400.0 µg/kg.

The source made the active and inactive calls. The calls are words filed in the database; no cut-off is given here.

For `C[C@H](NC(=O)[C@@H]1CCCN1C(=O)[C@H](CCCNC(=N)N)NC(=O)[C@@H](N)[C@@H](C)O)C(=O)N[C@@H](CO)C(=O)N[C@@H](Cc1ccccc1)C(=O)N[C@@H](Cc1c[nH]c2ccccc12)C(=O)N[C@@H](CCC(=O)O)C(=O)N[C@H](C(=O)N[C@@H](CO)C(=O)O)[C@@H](C)O`, the inhibition entry in the series on LX-2 [1] and in the series with LX-2 [6] was “inactive” throughout. The result with Mus musculus [2] and with Mus musculus [4] was inactive. The outcome with LX-2 [3] and with LX-2 [5] was Active. Further, the inhibition in the series listed under Homo sapiens was determined as 52.5%.

For `C[C@H](NC(=O)[C@@H]1CCCN1C(=O)[C@H](CCCNC(=N)N)NC(=O)[C@@H](N)[C@@H](C)O)C(=O)N[C@@H](CO)C(=O)N[C@H](Cc1ccccc1)C(=O)N[C@@H](Cc1c[nH]c2ccccc12)C(=O)N[C@@H](CCC(=O)O)C(=O)N[C@H](C(=O)N[C@@H](CO)C(=O)O)[C@@H](C)O`, the outcome in the series on LX-2 [7], with LX-2 [8], in the series with LX-2 [3], in the series with LX-2 [5], in the series with LX-2 [9] and in the series with LX-2 [10] was Active. The molecule also displayed an inhibition in the series filed under Homo sapiens of 71.3%. Further, the Stability entry in [11] is “Stable”.

With `C[C@@H]1NC(=O)[C@@H]2CCCN2C(=O)[C@H](CCCNC(=N)N)NC(=O)[C@H]([C@@H](C)O)NC(=O)[C@H](CO)NC(=O)[C@H]([C@@H](C)O)NC(=O)[C@H](CCC(=O)O)NC(=O)[C@H](Cc2c[nH]c3ccccc23)NC(=O)[C@@H](Cc2ccccc2)NC(=O)[C@H](CO)NC1=O`, the inhibition entry with LX-2 [1], in the series on LX-2 [18] and with LX-2 [6] was “inactive” each time. Further, the inhibition result was “Dose-dependent-effect” in the series on LX-2 [12], “Dose-dependent-effect” with LX-2 [16], 85.6% in the series filed under Homo sapiens and “Dose-dependent-effect” in the series with LX-2 [31]. Further, the outcome in the series filed under Mus musculus [13], with Mus musculus [15], in the series with LX-2 [7], in the series on Mus musculus [21], in the series listed under Mus musculus [22] and with LX-2 [8] was Active. Besides, the result in the series with Mus musculus [24], in the series with LX-2 [3], in the series listed under Mus musculus [25], with Mus musculus [26], in the series filed under Mus musculus [28] and in the series with LX-2 [5] was Active. In addition, the outcome in the series on LX-2 [9], in the series with LX-2 [10] and in the series filed under Mus musculus [30] was Active. Moreover, the Activity entry in the series with Mus musculus [14] is “Active; Compound Showed Higher Efficacy Than M10”; in the series with Mus musculus [19], “Active; Compound Showed Superior Effect Than M10”; with Mus musculus [20], “Active; Compound Showed Superior Effect Than M10”; with Mus musculus [27], “Active; Compound Showed Superior Effect Than M10”; in the series on Mus musculus [29], “Active; Compound Showed Superior Effect Than M10”; in the series with Mus musculus [33], “Active; Compound Showed Higher Efficacy Than M10”. Moreover, the inhibition entry with LX-2 [17], with LX-2 [23] and in the series on LX-2 [32] was “Active” in each case. In addition, the result in the series with Mus musculus [2] and in the series with Mus musculus [4] was inactive. Besides, the Stability result in series [11] was “Stable”.

As for H-TRPASWWETS-OH, the outcome with LX-2 [3] and with LX-2 [5] was inactive. The same molecule showed an inhibition in the series listed under Homo sapiens of 43.8%.

Turning to H-TRPAWFWETS-OH, the outcome in the series on LX-2 [3] and with LX-2 [5] was inactive. In the series listed under Homo sapiens, this molecule showed an inhibition of 21.3%.

As to H-TRPASDWETS-OH, the outcome in the series on LX-2 [3] and in the series with LX-2 [5] was inactive. In the series filed under Homo sapiens, this molecule displayed an inhibition of 23.6%.

Consider H-TRPAAFWETS-OH, for which the outcome in the series with LX-2 [3] and in the series with LX-2 [5] was Active. Moreover, the inhibition in the series filed under Homo sapiens was 46.2%.

Take H-TRPASFAETS-OH: the outcome with LX-2 [3] and in the series with LX-2 [5] was inactive. This molecule yielded an inhibition in the series filed under Homo sapiens of 6.5%.

As for H-TRPASFWEAS-OH, the result with LX-2 [3] and in the series on LX-2 [5] was inactive. In the series listed under Homo sapiens, this molecule yielded an inhibition of 9.3%.

Regarding H-ARPASFWETS-OH, the result with LX-2 [3] and in the series with LX-2 [5] was inactive. The molecule also registered an inhibition in the series filed under Homo sapiens of 12.5%.

Regarding `C[C@@H]1NC(=O)[C@@H]2CCCN2C(=O)[C@H](CCCNC(=N)N)NC(=O)[C@H]([C@@H](C)O)NC(=O)[C@H](CO)NC(=O)[C@H]([C@@H](C)O)NC(=O)[C@H](CCC(=O)O)NC(=O)[C@H](Cc2c[nH]c3ccccc23)NC(=O)[C@H](Cc2ccccc2)NC(=O)[C@@H](CO)NC1=O`, the outcome in the series with LX-2 [3] and in the series with LX-2 [5] was Active. In the series filed under Homo sapiens, this molecule returned an inhibition of 27.9%.
